# Like-named read-outs stand apart in the source and are kept apart here. Marks after values point to notes of the source that are not given here.
# Tests used:
# [1] = test system: domestic cat model of Niemann-Pick C; assay: Feline model of NPC: neurologic and clinical findings; assay type: in vivo; design: Front leg Hopping / Rear leg hopping / Vision-Menace: scale not given here; details: for Ataxia / Front leg Hopping / Intention tremors / Rear leg hopping / Vision-Menace: NPC-affected cat S222, NB-DNJ treated
# Method: A breeding colony for this animal model of NPC is being maintained to study the disease and its potential treatments (Brown et al (1996) J. Inherit Metab. Dis. 19:319-330).
# From seven feline NPC carrier litter mates, normal and NPC-affected male and female cats were selected for the study. The affected female and unaffected male began treatment with NB-DNJ at 1200 mg/kg/day. […] During a brief recovery period for these animals, an unrelated normal cat was treated to determine the maximum tolerated dose for NB-DNJ in this species. Based on this dose-ranging work, the NPC-affected and unaffected litter mates were restarted with NB-DNJ at 50 mg/kg/day. Over the following weeks, the administration level was increased to 150 mg/kg/day. […] Except for brief intervals when the treatments were withheld because of transient appetite loss, the NB-DNJ dosages were continued for about three months. On this date, the animals were sacrificed for histologic and lipid analyses.
# Cat number: S222; Status: NPC-affected, NB-DNJ-treated; […]; […]. […] […] also was noted to have bilateral luxating patellas at about the same time. […] Over the course of the next 20 weeks, her disease symptoms slowly worsened. However, on several occasions it was noted by the consulting neurologist that her symptoms were less severe than those of S221. […] The following is a tabulation of her neurologic and medical findings:
# [2] = assay type: in vivo; details: for Weight: NPC-affected cat S222, NB-DNJ treated, measured within 10 days before neuronal assessment
# GM2 ganglioside = assay: Immunocytochemistry with anti-GM2 ganglioside antibodies in cat brain; assay type: in vivo
# From the text: The following sections highlight the histologic and lipid analysis findings for the study animals. As with humans, there is an increased expression of gangliosides in feline NPC neurons. […] There is a corresponding increase in neuronal ganglioside level and histology changes seen in NPC humans.
# Immunocytochemical studies with anti-GM2 ganglioside antibodies were used to probe for ganglioside expression in treated vs. untreated cats in a qualitative manner.
# NPC^−/− mice = assay: Mouse model of NPC: symptoms and survival; assay type: in vivo
# From the text: Colonies of mutant mice expressing the NPC phenotype have been described (Pentchev et al., 1984, Miyawaki et al., 1986; Kitagawa, 1987), and has been validated by a number of criteria as an authentic model of the disease (Akaboshi et al., 1997). NPC mice display clinical signs of the disease around 6-8 weeks of age with mild intention tremor and ataxia. […] Death results by 10-12 weeks.
# Breeding pairs of mice heterozygous for the mutation causing NPC were used to produce offspring that are NPC^−/− homozygotes. These animals, along with their normal wildtype littermates, were used in the following NB-DNJ drug study. Where indicated, NB-DNJ was administered daily by mixing with ground mouse chow. Mice were PCR genotyped 2-3 weeks of age to determine their genetic background.
# […] NPC^−/− mice, with ages ranging from 3-7 weeks, were entered into a treatment study. Seven were treated with 1200 mg/kg/day and six were untreated. […] By 10 weeks of age, all six untreated NPC^−/− mice died or were sacrificed according to veterinary animal care requirements. In contrast, 4 of 7 NPC^−/− mice treated with NB-DNJ lived into their twelfth week. […] In this experiment, untreated NPC^−/− mice survived 65±1 days (average ±SE; n=6), while NPC^−/− mice treated with NB-DNJ at 1200 mg/kg/day survived 88±4 days (n=7).
# alpha-glucosidase 1 = molecular target: T1, alpha-glucosidase 1 (Homo sapiens, UniProt Q13724); details: cited from earlier work
# T1 sequence (Q13724 1-837): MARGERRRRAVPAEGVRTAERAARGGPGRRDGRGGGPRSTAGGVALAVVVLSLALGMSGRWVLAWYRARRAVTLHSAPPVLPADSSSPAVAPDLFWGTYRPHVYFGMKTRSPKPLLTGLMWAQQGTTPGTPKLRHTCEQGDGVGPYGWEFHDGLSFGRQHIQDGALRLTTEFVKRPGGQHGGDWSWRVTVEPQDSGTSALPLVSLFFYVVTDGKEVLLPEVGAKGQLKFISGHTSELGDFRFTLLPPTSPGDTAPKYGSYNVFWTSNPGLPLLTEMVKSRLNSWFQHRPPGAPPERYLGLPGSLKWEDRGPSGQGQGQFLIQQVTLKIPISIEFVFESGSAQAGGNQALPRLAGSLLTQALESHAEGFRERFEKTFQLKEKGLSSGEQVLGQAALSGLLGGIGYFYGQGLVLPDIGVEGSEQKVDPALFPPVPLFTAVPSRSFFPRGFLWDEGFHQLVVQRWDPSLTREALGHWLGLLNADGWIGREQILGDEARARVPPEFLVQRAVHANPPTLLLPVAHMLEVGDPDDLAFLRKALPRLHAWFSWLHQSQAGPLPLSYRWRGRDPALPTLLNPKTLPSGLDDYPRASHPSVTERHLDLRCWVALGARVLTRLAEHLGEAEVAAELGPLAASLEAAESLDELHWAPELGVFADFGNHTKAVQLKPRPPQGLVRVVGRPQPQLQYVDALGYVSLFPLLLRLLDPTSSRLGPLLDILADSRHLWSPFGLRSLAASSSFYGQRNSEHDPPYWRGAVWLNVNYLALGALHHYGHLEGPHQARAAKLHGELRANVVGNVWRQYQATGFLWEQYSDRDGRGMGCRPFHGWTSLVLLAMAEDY
# [3] = test system: glucosylceramide synthesis; details: cells treated with NB-DNJ; cited from earlier work
# [4] = patients with Parkinson's disease, stroke and spinal cord injuries; cited from earlier work
# [5] = NPC-affected cat S222, 100 mg/kg/day
compound,measurement,setting,value
"CCCCN1C[C@H](O)[C@@H](O)[C@H](O)[C@H]1CO [NB-DNJ, N-butyldeoxynojirimycin]",Severity of disease symptoms versus untreated NPC cat S221,"[1]; NPC-affected cat S222, 100 mg/kg/day, noted by consulting neurologist",less severe
same,Ataxia,[1]; Week 6.5,none
same,Front leg Hopping,[1]; Week 6.5,2
same,Intention tremors,[1]; Week 6.5,none
same,Rear leg hopping,[1]; Week 6.5,2
same,Vision-Menace,[1]; Week 6.5,2
same,Ataxia,[1]; Week 12.5,none
same,Front leg Hopping,[1]; Week 12.5,2
same,Intention tremors,[1]; Week 12.5,mild
same,Vision-Menace,[1]; Week 12.5,1
same,Rear leg hopping,"[1]; Week 12.5, diagnosed with bilateral luxating patellas",2^†
same,Ataxia,[1]; Week 16,none
same,Front leg Hopping,[1]; Week 16,2
same,Intention tremors,[1]; Week 16,mild
same,Rear leg hopping,[1]; Week 16,2
same,Vision-Menace,[1]; Week 16,1
same,Ataxia,[1]; Week 18.5,none
same,Front leg Hopping,[1]; Week 18.5,2
same,Intention tremors,[1]; Week 18.5,mild
same,Rear leg hopping,[1]; Week 18.5,1.5
same,Vision-Menace,[1]; Week 18.5,1.5
same,Ataxia,[1]; Week 20.5,none
same,Front leg Hopping,[1]; Week 20.5,2
same,Intention tremors,[1]; Week 20.5,mod
same,Rear leg hopping,[1]; Week 20.5,2
same,Vision-Menace,[1]; Week 20.5,.5
same,Ataxia,[1]; Week 22.5,none
same,Front leg Hopping,[1]; Week 22.5,1.5
same,Intention tremors,[1]; Week 22.5,mild
same,Rear leg hopping,[1]; Week 22.5,1.5
same,Vision-Menace,[1]; Week 22.5,1
same,Ataxia,[1]; Week 24.5,none
same,Front leg Hopping,[1]; Week 24.5,2
same,Intention tremors,[1]; Week 24.5,mod
same,Rear leg hopping,[1]; Week 24.5,2
same,Vision-Menace,[1]; Week 24.5,1
same,Ataxia,[1]; Week 26.5,none
same,Front leg Hopping,[1]; Week 26.5,2
same,Intention tremors,[1]; Week 26.5,mild
same,Rear leg hopping,[1]; Week 26.5,1.5
same,Vision-Menace,[1]; Week 26.5,1
same,Ataxia,[1]; Week 29,mod
same,Front leg Hopping,[1]; Week 29,2
same,Intention tremors,[1]; Week 29,mod
same,Rear leg hopping,[1]; Week 29,1
same,Vision-Menace,[1]; Week 29,1
same,Ataxia,[1]; Week 30.5,mild
same,Intention tremors,[1]; Week 30.5,mod
same,Vision-Menace,[1]; Week 30.5,1
same,Ataxia,[1]; Week 32.5,mod
same,Front leg Hopping,[1]; Week 32.5,1
same,Intention tremors,[1]; Week 32.5,mod
same,Rear leg hopping,[1]; Week 32.5,1
same,Vision-Menace,[1]; Week 32.5,0.5
same,Symptoms of neurologic degeneration typical for NPC,"[1]; cats, NB-DNJ treatment",qualitatively delays
same,Fur colour,[2]; [5],light-coloured fur effect
same,Tolerability,[2]; [5],reasonably well handled
same,Appetite,"[2]; NPC-affected cat S222, 100 mg/kg/day, relative to normal and NPC-affected cats",significantly reduced
same,Weight,[2]; Week 6.5,522 gms
same,Weight,[2]; Week 12.5,965 gms
same,Weight,[2]; Week 16,1265 gms
same,Weight,[2]; Week 18.5,1390 gms
same,Weight,[2]; Week 20.5,1453 gms
same,Weight,[2]; Week 22.5,1469 gms
same,Weight,[2]; Week 24.5,1495 gms
same,Weight,[2]; Week 26.5,1525 gms
same,Weight,[2]; Week 29,1565 gms
same,Weight,[2]; Week 30.5,1590 gms
same,Weight,[2]; Week 32.5,1677 gms
same,Hepatotoxicity,"[2]; NPC-affected cat S222, starting dose 1200 mg/kg/day",acutely hepatotoxic
same,Hepatotoxicity,"[2]; cats, 150 mg/kg/day",hepatotoxic
same,Hepatotoxicity,"[2]; cats, 1200 mg/kg/day",acutely hepatotoxic
same,Appetite and overall responsiveness,"[2]; normal cat S161, 100 mg/kg/day",decreased
same,Hair colour,"[2]; normal cat S218, 100 mg/kg/day",markedly more beige
same,Serum levels of liver enzymes,"[2]; normal cat S218, 1200 mg/kg/day",dramatic elevation
same,Appetite,"[2]; normal cat S218, eventual dosage 100 mg/kg/day",significantly less than that of a normal cat
same,Hepatotoxicity,"[2]; normal cat S218, starting dose 1200 mg/kg/day",acutely hepatotoxic
same,Weight at the end of the treatment period,"[2]; normal female cat S218, 100 mg/kg/day, normal female cat expected about 4 kg",about 2.4 kg
same,GM2 immunoreactivity in granular cell layer of cerebellum,GM2 ganglioside; NPC cat treated with NB-DNJ,largely devoid of GM2 immunoreactivity
same,GM2 labeling in Purkinje cells,GM2 ganglioside; NPC cat treated with NB-DNJ,qualitatively less GM2 labeling
same,GM2 labeling in the cerebral cortex,"GM2 ganglioside; NPC cat treated with NB-DNJ, compared to untreated NPC cat",qualitatively less severe
same,Accumulation of glucosylceramide-containing glycolipids (e.g. GM2),GM2 ganglioside; NPC cats,qualitatively decreases
same,Symptoms of neurologic degeneration typical for NPC,"NPC^−/− mice; NPC mice, 1200 mg/kg/day",qualitatively delaying
same,Increase in longevity,"NPC^−/− mice; NPC mice, 1200 mg/kg/day versus untreated",26%
same,Mice displaying symptoms of neurologic effects,"NPC^−/− mice; NPC^−/− mice, 1200 mg/kg/day in chow, by 8 weeks of age, untreated 5 out of 6",none
same,Mice displaying any degree of symptoms,"NPC^−/− mice; NPC^−/− mice, 1200 mg/kg/day, by 9 weeks of age, untreated all six",4 of 7
same,Survival (average ±SE),"NPC^−/− mice; NPC^−/− mice, 1200 mg/kg/day, n=7, untreated 65±1 days",88 ± 4 days
same,Surviving mice displaying some degree of NPC-induced neural degeneration,"NPC^−/− mice; NPC^−/− mice, 1200 mg/kg/day, twelfth week",Three of these four
same,Mice that lived into their twelfth week,"NPC^−/− mice; NPC^−/− mice, 1200 mg/kg/day, all untreated dead by 10 weeks",4 of 7
same,Inhibition of alpha-glucosidase 1,alpha-glucosidase 1,potent inhibitor
same,Glucosylceramide levels,[3],markedly reduced
GM1 ganglioside,Neurodegenerative processes,[4],seem to improve
